target: Human Constitutive (Hu C-20S) β5 Active Subunit (Homo sapiens, UniProt P28074); experiment: IC50 determination, human constitutive 20S proteasome β5c (suc-LLVY-AMC hydrolysis); format: biochemical; conditions: Table 3; IC50 against human constitutive β5 active subunit; read-out: Hu-C20S β5

Row | SMILES | IC50
1 | C[C@H](NC(=O)[C@H](CC(=O)N1CCCC[C@@H]1C)NC(=O)c1cncs1)c1ncc(-c2ccc(F)cc2F)[nH]1 [CEN-98, N—((S)-1-(((S)-1-(5-(2,4-Difluorophenyl)-1H-imidazol-2-yl)ethyl)amino)-4-((S)-2-methylpiperidin-1-yl)-1,4-dioxobutan-2-yl)thiazole-5-carboxamide] | 7.1 µM
2 | C[C@H](NC(=O)[C@H](CC(=O)N1CCCC[C@@H]1C)NC(=O)CCC(C)(C)C)c1ncc(-c2ccc(F)cc2F)[nH]1 [CEN-99, N—((S)-1-(((S)-1-(5-(2,4-Difluorophenyl)-1H-imidazol-2-yl)ethyl)amino)-4-((S)-2-methylpiperidin-1-yl)-1,4-dioxobutan-2-yl)-4,4-dimethylpentanamide] | 8.5 µM
3 | CC[C@H]1CCCCN1C(=O)C[C@H](NC(=O)CCC(C)C)C(=O)N[C@@H](C)c1ncc(-c2ccc(F)cc2F)[nH]1 [CEN-100, N—((S)-1-(((S)-1-(5-(2,4-Difluorophenyl)-1H-imidazol-2-yl)ethyl)amino)-4-((S)-2-ethylpiperidin-1-yl)-1,4-dioxobutan-2-yl)-4-methylpentanamide] | 4.4 µM
4 | C[C@H](NC(=O)N(CC(=O)N1CCCC[C@@H]1C)NC(=O)CCC(C)(C)C)c1ncc(-c2ccc(F)cc2F)[nH]1 [CEN-101, N—((S)-1-(5-(2,4-Difluorophenyl)-1H-imidazol-2-yl)ethyl)-2-(4,4-dimethylpentanoyl)-1-(2-((S)-2-methylpiperidin-1-yl)-2-oxoethyl)hydrazine-1-carboxamide] | 7.6 µM
5 | C[C@H](NC(=O)[C@H](CC(=O)N1CCCC[C@@H]1C)NC(=O)Cc1ccccc1)c1ncc(-c2ccc(F)cc2F)[nH]1 [CEN-102, (S)—N—((S)-1-(5-(2,4-Difluorophenyl)-1H-imidazol-2-yl)ethyl)-4-((S)-2-methylpiperidin-1-yl)-4-oxo-2-(2-phenylacetamido)butanamide] | 10.2 µM
6 | C[C@H](NC(=O)[C@H](CC(=O)N1CCCC[C@@H]1C)NCC(=O)c1ccccc1)c1ncc(-c2ccc(F)cc2F)[nH]1 [CEN-103, (S)—N—((S)-1-(5-(2,4-Difluorophenyl)-1H-imidazol-2-yl)ethyl)-4-((S)-2-methylpiperidin-1-yl)-4-oxo-2-((2-oxo-2-phenylethyl)amino)butanamide] | 15.2 µM
7 | CC(C)CS(=O)(=O)N[C@@H](CC(=O)N1CCCC[C@@H]1C)C(=O)N[C@@H](C)c1ncc(-c2ccc(F)cc2F)[nH]1 [CEN-104, (S)—N—((S)-1-(5-(2,4-Difluorophenyl)-1H-imidazol-2-yl)ethyl)-4-((S)-2-methylpiperidin-1-yl)-2-((2-methylpropyl)sulfonamido)-4-oxobutanamide] | 4.9 µM
8 | Cc1ncc(C(=O)N[C@@H](CC(=O)N2CCCC[C@@H]2C)C(=O)N[C@@H](C)c2ncc(-c3ccc(F)cc3F)[nH]2)s1 [CEN-105, N—((S)-1-(((S)-1-(5-(2,4-Difluorophenyl)-1H-imidazol-2-yl)ethyl)amino)-4-((S)-2-methylpiperidin-1-yl)-1,4-dioxobutan-2-yl)-2-methylthiazole-5-carboxamide] | 3.9 µM
9 | C[C@H](NC(=O)[C@H](CC(=O)N1CCCC[C@@H]1C)NC(=O)CC1CCOCC1)c1ncc(-c2ccc(F)cc2F)[nH]1 [CEN-106, (S)—N—((S)-1-(5-(2,4-Difluorophenyl)-1H-imidazol-2-yl)ethyl)-4-((S)-2-methylpiperidin-1-yl)-4-oxo-2-(2-(tetrahydro-2H-pyran-4-yl)acetamido)butanamide] | 12.8 µM
10 | CC(C)CCC(=O)N[C@@H](CC(=O)N1CCCCC1C(C)C)C(=O)N[C@@H](C)c1ncc(-c2ccc(F)cc2F)[nH]1 (stereo partly drawn) [CEN-107, N-((2S)-1-(((S)-1-(5-(2,4-Difluorophenyl)-1H-imidazol-2-yl)ethyl)amino)-4-(2-isopropylpiperidin-1-yl)-1,4-dioxobutan-2-yl)-4-methylpentanamide] | 2.8 µM
11 | C[C@H](NC(=O)[C@H](CC(=O)N1CCCC[C@@H]1C)NS(=O)(=O)CCC1CC1)c1ncc(-c2ccc(F)cc2F)[nH]1 [CEN-108, (S)-2-((2-Cyclopropylethyl)sulfonamido)-N—((S)-1-(5-(2,4-difluorophenyl)-1H-imidazol-2-yl)ethyl)-4-((S)-2-methylpiperidin-1-yl)-4-oxobutanamide] | 6.2 µM
12 | C[C@H](NC(=O)[C@H](CC(=O)N1CCCC[C@@H]1C)Nc1nc2ccccc2o1)c1ncc(-c2ccc(F)cc2F)[nH]1 [CEN-109, (S)-2-(Benzo[d]oxazol-2-ylamino)-N—((S)-1-(5-(2,4-difluorophenyl)-1H-imidazol-2-yl)ethyl)-4-((S)-2-methylpiperidin-1-yl)-4-oxobutanamide] | 7.3 µM
13 | C[C@H](NC(=O)[C@H](CC(=O)N1CCCC[C@@H]1C)NS(=O)(=O)c1ccccc1)c1ncc(-c2ccc(F)cc2F)[nH]1 [CEN-110, (S)—N—((S)-1-(5-(2,4-Difluorophenyl)-1H-imidazol-2-yl)ethyl)-4-((S)-2-methylpiperidin-1-yl)-4-oxo-2-(phenylsulfonamido)butanamide] | 8.1 µM
14 | CC(C)CCC(=O)N[C@@H](CC(=O)N1CCCC[C@@H]1C(F)(F)F)C(=O)N[C@@H](C)c1ncc(-c2ccc(F)cc2F)[nH]1 [CEN-111, N—((S)-1-(((S)-1-(5-(2,4-Difluorophenyl)-1H-imidazol-2-yl)ethyl)amino)-1,4-dioxo-4-((R)-2-(trifluoromethyl)piperidin-1-yl)butan-2-yl)-4-methylpentanamide] | 4.9 µM
15 | C[C@H](NC(=O)[C@H](CC(=O)N1CCCC[C@@H]1C)NS(=O)(=O)Cc1ccccc1)c1ncc(-c2ccc(F)cc2F)[nH]1 [CEN-112, (S)—N—((S)-1-(5-(2,4-Difluorophenyl)-1H-imidazol-2-yl)ethyl)-4-((S)-2-methylpiperidin-1-yl)-4-oxo-2-((phenylmethyl)sulfonamido)butanamide] | 6.1 µM
16 | Cc1ccc(S(=O)(=O)N[C@@H](CC(=O)N2CCCC[C@@H]2C)C(=O)N[C@@H](C)c2ncc(-c3ccc(F)cc3F)[nH]2)cc1 [CEN-113, (S)—N—((S)-1-(5-(2,4-Difluorophenyl)-1H-imidazol-2-yl)ethyl)-2-((4-methylphenyl)sulfonamido)-4-((S)-2-methylpiperidin-1-yl)-4-oxobutanamide] | 6.5 µM
17 | CC(C)CCS(=O)(=O)N[C@@H](CC(=O)N1CCCC[C@@H]1C)C(=O)N[C@@H](C)c1ncc(-c2ccc(F)cc2F)[nH]1 [CEN-114, (S)—N—((S)-1-(5-(2,4-Difluorophenyl)-1H-imidazol-2-yl)ethyl)-2-((3-methylbutyl)sulfonamido)-4-((S)-2-methylpiperidin-1-yl)-4-oxobutanamide] | 9.7 µM
18 | Cc1cc(C(=O)N[C@@H](CC(=O)N2CCC[C@@H]2c2ccccc2)C(=O)N[C@@H](C)c2ncc(-c3ccc(F)cc3F)[nH]2)no1 [CEN-115, N—((S)-1-(((S)-1-(5-(2,4-Difluorophenyl)-1H-imidazol-2-yl)ethyl)amino)-1,4-dioxo-4-((R)-2-phenylpyrrolidin-1-yl)butan-2-yl)-5-methylisoxazole-3-carboxamide] | > 100 µM
19 | Cc1cc(C(=O)N[C@@H](CC(=O)N2CCCC[C@@H]2C)C(=O)N[C@@H](C)c2ncc(-c3ccccc3)[nH]2)no1 [CEN-116, 5-Methyl-N—((S)-4-((S)-2-methylpiperidin-1-yl)-1,4-dioxo-1-(((S)-1-(5-phenyl-1H-imidazol-2-yl)ethyl)amino)butan-2-yl)isoxazole-3-carboxamide] | 9.5 µM
20 | Cc1cc(C(=O)N[C@@H](CC(=O)N2CCCCC2C)C(=O)N[C@@H](C)c2ncc(-c3ccccc3)[nH]2)no1 (stereo partly drawn) [CEN-117, 5-Methyl-N-((2S)-4-(2-methylpiperidin-1-yl)-1,4-dioxo-1-(((S)-1-(5-phenyl-1H-imidazol-2-yl)ethyl)amino)butan-2-yl)isoxazole-3-carboxamide] | 11 µM
21 | Cc1cc(C(=O)N[C@@H](CC(=O)N2CCCC[C@@H]2C)C(=O)N[C@@H](C)c2ncc(-c3ccccc3F)[nH]2)no1 [CEN-118, N—((S)-1-(((S)-1-(5-(2-Fluorophenyl)-1H-imidazol-2-yl)ethyl)amino)-4-((S)-2-methylpiperidin-1-yl)-1,4-dioxobutan-2-yl)-5-methylisoxazole-3-carboxamide] | 15.8 µM
22 | Cc1cc(C(=O)N[C@@H](CC(=O)N2CCCC[C@@H]2C)C(=O)N[C@@H](C)c2ncc(-c3ccc(F)cc3)[nH]2)no1 [CEN-119, N—((S)-1-(((S)-1-(5-(4-Fluorophenyl)-1H-imidazol-2-yl)ethyl)amino)-4-((S)-2-methylpiperidin-1-yl)-1,4-dioxobutan-2-yl)-5-methylisoxazole-3-carboxamide] | 18 µM
23 | Cc1cc(C(=O)N[C@@H](CC(=O)N2CCC[C@@H]2c2ccccc2)C(=O)N[C@@H](C)c2ncc(-c3ccccc3)[nH]2)no1 [CEN-120, N—((S)-1,4-Dioxo-1-(((S)-1-(5-phenyl-1H-imidazol-2-yl)ethyl)amino)-4-((R)-2-phenylpyrrolidin-1-yl)butan-2-yl)-5-methylisoxazole-3-carboxamide] | > 100 µM
24 | C[C@H](NC(=O)[C@H](CC(=O)N1CCC[C@@H]1c1ccccc1)NC(=O)CC1CC1)c1ncc(Cc2ccccc2)[nH]1 [CEN-121, (S)—N—((S)-1-(5-Benzyl-1H-imidazol-2-yl)ethyl)-2-(2-cyclopropylacetamido)-4-oxo-4-((R)-2-phenylpyrrolidin-1-yl)butanamide] | 10.6 µM
25 | C[C@H](NC(=O)[C@H](CC(=O)N1CCCC[C@@H]1C)NC(=O)CC1CCOCC1)c1ncc(Cc2ccccc2)[nH]1 [CEN-122, (S)—N—((S)-1-(5-Benzyl-1H-imidazol-2-yl)ethyl)-4-((S)-2-methylpiperidin-1-yl)-4-oxo-2-(2-(tetrahydro-2H-pyran-4-yl)acetamido)butanamide] | 13.5 µM
26 | Cc1cc(C(=O)N[C@@H](CC(=O)N2CCC[C@@H]2c2ccccc2)C(=O)N[C@@H](C)c2ncc(Cc3ccccc3)[nH]2)no1 [CEN-123, N—((S)-1-(((S)-1-(5-Benzyl-1H-imidazol-2-yl)ethyl)amino)-1,4-dioxo-4-((R)-2-phenylpyrrolidin-1-yl)butan-2-yl)-5-methylisoxazole-3-carboxamide] | 7.4 µM
27 | C[C@H](NC(=O)[C@H](CC(=O)N1CCCC[C@@H]1C)NC(=O)CC1CC1)c1ncc(Cc2ccccc2)[nH]1 [CEN-124, (S)—N—((S)-1-(5-Benzyl-1H-imidazol-2-yl)ethyl)-2-(2-cyclopropylacetamido)-4-((S)-2-methylpiperidin-1-yl)-4-oxobutanamide] | 10.4 µM
